Source: patent publication US20260216347A1, “Substituted Imidazo-Based Compounds as Ligand Directed Degraders of IRAK3” (Celgene Corporation, priority 2022, published 2026)

Columns and labels:
IRAK3 [1] = target: T1, IRAK3 (Homo sapiens, UniProt Q9Y616); assay: IRAK3 biochemical binding assay (LanthaScreen Eu Kinase Binding, TR-FRET)
T1 construct: IRAK Endogenous HTRF Degradation Assay; endogenous in cells
T1 sequence (Q9Y616 1-596): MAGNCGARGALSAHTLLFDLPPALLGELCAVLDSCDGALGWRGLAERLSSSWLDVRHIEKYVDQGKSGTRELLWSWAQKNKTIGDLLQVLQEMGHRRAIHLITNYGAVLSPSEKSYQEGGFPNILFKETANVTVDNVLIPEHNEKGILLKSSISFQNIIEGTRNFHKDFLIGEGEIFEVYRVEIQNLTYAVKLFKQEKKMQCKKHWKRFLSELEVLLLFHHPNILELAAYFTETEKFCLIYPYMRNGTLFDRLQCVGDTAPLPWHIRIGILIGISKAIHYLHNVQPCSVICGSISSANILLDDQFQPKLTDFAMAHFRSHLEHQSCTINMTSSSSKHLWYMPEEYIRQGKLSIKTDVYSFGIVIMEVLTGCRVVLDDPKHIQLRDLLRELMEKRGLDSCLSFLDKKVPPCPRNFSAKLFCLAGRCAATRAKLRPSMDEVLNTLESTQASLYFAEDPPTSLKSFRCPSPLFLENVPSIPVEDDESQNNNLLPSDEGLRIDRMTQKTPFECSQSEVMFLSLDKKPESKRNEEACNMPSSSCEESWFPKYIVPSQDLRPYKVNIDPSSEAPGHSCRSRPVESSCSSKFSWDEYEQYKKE
Method in brief: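 TR-FRET tracer-displacement binding with 10 nM IRAK3, 2 nM Eu-anti-GST antibody and 10 nM tracer in 50 mM HEPES pH 7.4, MgCl2, 1 mM EGTA, 0.01% Brij-35. Compounds in 3-fold dilutions, 1 h at room temperature. 665/615 nm ratio gave % inhibition; IC50 and Hill slope from dose-response fit.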

IRAK3 [2] = target: T1, IRAK3; assay: IRAK endogenous HTRF degradation assay (Total-IRAK3 HTRF kit); assay type: cell-based; conditions: overnight incubation, lowest percentage of protein remaining
Method in brief: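 Cells (~50 k) incubated overnight with 3-fold serial dilutions of compound, then lysed; total IRAK3 read by HTRF (665/615 nm ratio ×10,000), normalized to DMSO as 100%. EC50 from four-parameter logistic fit; Dmax = 100 − Ymin (lowest % protein remaining); DC50 = concentration giving 50% degradation.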

IRAK3-ePL = target: T2, IRAK3-ePL (Homo sapiens, UniProt Q9Y616); assay: IRAK3-ePL overexpressing degradation assay (InCELL Hunter luminescence, dose response); assay type: cell-based; conditions: for IRAK3 ePL degradation Ymin: lowest percentage of target protein remaining following compound treatment; for DC50: read-out: IRAK3 ePL degradation EC50
T2 construct: expressed in transfected cells; host or cells: 293T CRBN OE/GSPT1 G575N KI cells, lentiviral transduction, puromycin selected
Method in brief: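 Lenti-X 293T CRBN/GSPT1 G575N cells stably expressing IRAK3-ePL (5,000/well) treated overnight at 37° C with 10-point 3-fold dilutions from 10 μM, 0.2% DMSO. InCELL Hunter luminescence, background subtracted using Ataluren wells and normalized to DMSO; EC50 from four-parameter logistic fit.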

## Cc1cc(-c2cnc(Nc3cnn(C4CCN(C(=O)CN5CCN(c6ccc7c(c6)C(=O)N(C6CCC(=O)NC6=O)C7=O)CC5)CC4)c3)c3nccn23)c(F)cc1F (centres unmarked) [Compound 24, 5-(4-(2-(4-(4-((5-(2,4-difluoro-5-methylphenyl)imidazo[1,2-a]pyrazin-8-yl)amino)-1H-pyrazol-1-yl)piperidin-1-yl)-2-oxoethyl)piperazin-1-y1)-2-(2,6-dioxopiperidin-3-yl)isoindoline-1,3-dione]
IRAK3 [1]
  IC50: 4.6 nM
IRAK3 [2]
  IRAK3 HTRF degradation Ymin: 25%

## COc1cc(N2CCN(CCN3CCC(n4cc(Nc5ncc(-c6cc(C)c(F)cc6F)n6ccnc56)cn4)CC3)CC2)ccc1C1CCC(=O)NC1=O (centres unmarked) [Compound 25, 3-(4-(4-(2-(4-(4-((5-(2,4-difluoro-5-methylphenyl)imdazo [1,2-a]pyrazin-8-yl)amino)-1H-pyrazol-1-yl)piperidin-1-yl)ethyl)piperazin-1-yl)-2-methoxyphenyl) piperidine-2,6-dione]
IRAK3 [1]
  IC50: 1.7 nM
IRAK3 [2]
  IRAK3 HTRF degradation Ymin: 18%

## Cc1cc(-c2cnc(Nc3cnn([C@H]4CCN(CCN5CCN(c6ccc(C7CCC(=O)NC7=O)cc6)CC5)[C@@H](C)C4)c3)c3nccn23)c(F)cc1F (stereo partly drawn) [Compound 26, 3-(4-(4-(2-((2S,4S)-4-(4-((5-(2,4-difluoro-5-methylphenyl)imdazo [1,2-a]pyrazin-8-yl)amino)-1H-pyrazol-1-yl)-2-methylpiperidin-1-yl)ethyl)piperazin-1-yl)phenyl) piperidine-2,6-dione]
IRAK3 [1]
  IC50: 1.1 nM
IRAK3 [2]
  IRAK3 HTRF degradation Ymin: 12%

## Cc1cc(-c2cnc(Nc3cnn([C@H]4CC[C@@H](CCN5CCN(c6ccc(C7CCC(=O)NC7=O)cc6)C[C@@H]5C)CC4)c3)c3nccn23)c(F)cc1F (stereo partly drawn) [Compound 27, 3-(4-((S)-4-(2-((cis)-4-(4-((5-(2,4-difluoro-5-methylphenyl)imidazo[1,2-a]pyrazin-8-yl)amino)-1H-pyrazol-1-yl)cyclohexyl)ethyl)-3-methylpiperazin-1-yl)phenyl) piperidine-2,6-dione]
IRAK3 [1]
  IC50: 7.6 nM
IRAK3 [2]
  IRAK3 HTRF degradation Ymin: 14%

## Cc1cc(-c2cnc(Nc3cnn(C4CCN(CCN5CCN(c6ccc(C7CCC(=O)N(C)C7=O)cc6)CC5)CC4)c3)c3nccn23)c(F)cc1F (centres unmarked) [Compound 55, 3-(4-(4-(2-(4-(4-((5-(2,4-difluoro-5-methylphenyl)imdazo [1,2-a]pyrazin-8-yl)amino)-1H-pyrazol-1-yl)piperidin-1-yl)ethyl)piperazin-1-yl)phenyl)-1-methylpiperidine-2,6-dione]
IRAK3-ePL
  IRAK3 ePL degradation Ymin: 84%
  DC50: 1100 nM
IRAK3 [2]
  IRAK3 HTRF degradation Ymin: 64%

## Cc1cc(-c2cnc(Nc3cnn(C4CCN(CCN5[C@@H](C)CN(c6ccc(C7CCC(=O)NC7=O)cc6)C[C@@H]5C)CC4)c3)c3nccn23)c(F)cc1F (stereo partly drawn) [Compound 56, 3-(4-((3S,5S)-4-(2-(4-(4-((5-(2,4-difluoro-5-methylphenyl)imdazo [1,2-a]pyrazin-8-yl)amino)-1H-pyrazol-1-yl)piperidin-1-yl)ethyl)-3,5-dimethylpiperazin-1-yl)phenyl) piperidine-2,6-dione]
IRAK3-ePL
  IRAK3 ePL degradation Ymin: 23%
  DC50: 0.75 nM
IRAK3 [2]
  IRAK3 HTRF degradation Ymin: 8.6%

## Cc1cc(-c2cnc(Nc3cnn([C@H]4CC[C@H](CCN5CCN(c6ccc(C7CCC(=O)NC7=O)cc6)C[C@@H]5C)CC4)c3)c3nccn23)c(F)cc1F (stereo partly drawn) [Compound 57, 3-(4-((S)-4-(2-((trans)-4-(4-((5-(2,4-difluoro-5-methylphenyl)imidazo[1,2-a]pyrazin-8-yl)amino)-1H-pyrazol-1-yl)cyclohexyl)ethyl)-3-methylpiperazin-1-yl)phenyl) piperidine-2,6-dione]
IRAK3-ePL
  IRAK3 ePL degradation Ymin: 24%
  DC50: 5.7 nM
IRAK3 [2]
  IRAK3 HTRF degradation Ymin: 8.72%

## Cc1cc(-c2cnc(Nc3cnn(C4CCN(CCN5[C@H](C)CN(c6ccc(C7CCC(=O)NC7=O)cc6)C[C@H]5C)CC4)c3)c3nccn23)c(F)cc1F (stereo partly drawn) [Compound 58, 3-(4-((3R,5R)-4-(2-(4-(4-((5-(2,4-difluoro-5-methylphenyl)imdazo [1,2-a]pyrazin-8-yl)amino)-1H-pyrazol-1-yl)piperidin-1-yl)ethyl)-3,5-dimethylpiperazin-1-yl)phenyl) piperidine-2,6-dione]
IRAK3-ePL
  IRAK3 ePL degradation Ymin: 25%
  DC50: 0.98 nM
IRAK3 [2]
  IRAK3 HTRF degradation Ymin: 9.7%

## Cc1cc(-c2cnc(Nc3cnn([C@@H]4CCN(CCN5CCN(c6ccc(C7CCC(=O)NC7=O)cc6)C[C@@H]5C)[C@H](C)C4)c3)c3nccn23)c(F)cc1F (stereo partly drawn) [Compound 59, 3-(4-((S)-4-(2-((2R,4R)-4-(4-((5-(2,4-difluoro-5-methylphenyl)imdazo [1,2-a]pyrazin-8-yl)amino)-1H-pyrazol-1-yl)-2-methylpiperidin-1-yl)ethyl)-3-methylpiperazin-1-yl)phenyl) piperidine-2,6-dione]
IRAK3-ePL
  IRAK3 ePL degradation Ymin: 21%
  DC50: 0.51 nM
IRAK3 [2]
  IRAK3 HTRF degradation Ymin: 7.5%

## Cc1cc(-c2cnc(N[C@@H]3CCN(C4CCN(CCN5CCN(c6ccc(C7CCC(=O)NC7=O)cc6)CC5)CC4)C3)c3nccn23)c(F)cc1F (stereo partly drawn) [Compound 60, 3-(4-(4-(2-(4-((R)-3-((5-(2,4-difluoro-5-methylphenyl)imdazo [1,2-a]pyrazin-8-yl)amino)pyrrolidin-1-yl)piperidin-1-yl)ethyl)piperazin-1-yl)phenyl) piperidine-2,6-dione]
IRAK3-ePL
  IRAK3 ePL degradation Ymin: 92%
  DC50: 0.51 nM
IRAK3 [2]
  IRAK3 HTRF degradation Ymin: 96%

## Cc1cc(-c2cnc(Nc3cnn(C4CCN(CCN5CCN(c6ccc(C7CCC(=O)NC7=O)cc6)CC5)CC4)c3)c3ncc(C)n23)c(F)cc1F (centres unmarked) [Compound 61, 3-(4-(4-(2-(4-(4-((5-(2,4-difluoro-5-methylphenyl)-3-methylimidazo[1,2-a]pyrazin-8-yl)amino)-1H-pyrazol-1-yl)piperidin-1-yl)ethyl)piperazin-1-yl)phenyl) piperidine-2,6-dione]
IRAK3-ePL
  IRAK3 ePL degradation Ymin: 41%
  DC50: 18 nM
IRAK3 [2]
  IRAK3 HTRF degradation Ymin: 20%

## Cc1cc(-c2cnc(Nc3cnn([C@H]4CCN(CCN5CCN(c6ccc(C7CCC(=O)NC7=O)cc6)CC5)C[C@H]4F)c3)c3nccn23)c(F)cc1F (stereo partly drawn) [Compound 63, 3-(4-(4-(2-((3R,4S)-4-(4-((5-(2,4-difluoro-5-methylphenyl)imdazo [1,2-a]pyrazin-8-yl)amino)-1H-pyrazol-1-yl)-3-fluoropiperidin-1-yl)ethyl)piperazin-1-yl)phenyl) piperidine-2,6-dione]
IRAK3-ePL
  IRAK3 ePL degradation Ymin: 25%
  DC50: 0.51 nM
IRAK3 [2]
  IRAK3 HTRF degradation Ymin: 8.9%

## Cc1cccc(-c2cnc(Nc3cnn([C@H]4CC[C@H](CCN5CCN(c6ccc(C7CCC(=O)NC7=O)cc6)CC5)CC4)c3)c3nccn23)c1 (some centres unmarked) [Compound 64]
IRAK3-ePL
  IRAK3 ePL degradation Ymin: 25%
  DC50: 4.2 nM
IRAK3 [2]
  IRAK3 HTRF degradation Ymin: 8.6%

## Cc1cc(-c2cnc(N[C@H]3CCN(C4CCN(CCN5CCN(c6ccc(C7CCC(=O)NC7=O)cc6)CC5)CC4)C3)c3nccn23)c(F)cc1F (stereo partly drawn) [Compound 65, 3-(4-(4-(2-(4-((S)-3-((5-(2,4-difluoro-5-methylphenyl)imdazo [1,2-a]pyrazin-8-yl)amino)pyrrolidin-1-yl)piperidin-1-yl)ethyl)piperazin-1-yl)phenyl) piperidine-2,6-dione]
IRAK3-ePL
  IRAK3 ePL degradation Ymin: 86%
  DC50: 3300 nM
IRAK3 [2]
  IRAK3 HTRF degradation Ymin: 96%

## Cn1cc(-c2cnc(Nc3cnn(C4CCN(CCN5CCN(c6ccc(C7CCC(=O)NC7=O)cc6)CC5)CC4)c3)c3nccn23)cn1 (centres unmarked) [Compound 73, 3-(4-(4-(2-(4-(4-((5-(1-methyl-1H-pyrazol-4-yl)imidazo[1,2-a]pyrazin-8-yl)amino)-1H-pyrazol-1-yl)piperidin-1-yl)ethyl)piperazin-1-yl)phenyl) piperidine-2,6-dione]
IRAK3-ePL
  IRAK3 ePL degradation Ymin: 24%
  DC50: 0.51 nM
IRAK3 [2]
  IRAK3 HTRF degradation Ymin: 9.1%
